Drawing on ChEMBL document CHEMBL2034904, “A new series of N5 derivatives of the 1,1,5-trimethyl furo[3,4-c]pyridine-3,4-dione (cerpegin) selectively inhibits the post-acid activity of mammalian 20S proteasomes” (Bioorg Med Chem Lett, 2012), this text covers inhibition and IC50 for 29 molecules.

The species entered for experiment [1] is Oryctolagus cuniculus. The experiment is described as follows: Inhibition of rabbit 20S proteasome chymotrypsin-like activity using […] as substrate at 10 to 50 uM. The settings on record: TDE = time-dependent effect.
Experiment [2] is described as follows: Inhibition of chymotrypsin-like activity of 20S proteasome catalytic core from rabbit erythrocytes using Suc-LLVY-AMC as substrate preincubated for 15 mins prior to substrate addition measured after 45 mins. Also noted: species or system Oryctolagus cuniculus.
The nature of experiment [3]: Inhibition of caspase-like activity of 20S proteasome catalytic core from human erythrocytes using Z-LLE-NA as substrate preincubated for 15 mins prior to substrate addition measured after 45 mins.
Experiment [4] in a line: (§1) Inhibition of chymotrypsin-like activity of 20S proteasome catalytic core from human erythrocytes using Suc-LLVY-AMC as substrate preincubated for 15 mins prior to substrate addition measured after 45 mins.
Experiment [5] concerns the target Cathepsin B (Homo sapiens) (UniProt P07858). The experiment is described as follows: Inhibition of cathepsin B from human hepatocytes using […] as substrate. The settings on record: Hepatocyte.
Experiment [6] is filed under the species Oryctolagus cuniculus. The experiment can be described thus: Irreversible inhibition of rabbit 20S proteasome chymotrypsin-like activity using […] as substrate at 10 to 50 uM from 5 to 60 mins.
Experiment [7] is described as follows: Inhibition of caspase-like activity of 20S proteasome catalytic core from rabbit erythrocytes using Z-LLE-NA as substrate preincubated for 15 mins prior to substrate addition measured after 45 mins. Further details: species or system Oryctolagus cuniculus.
A short description of experiment [8]: Inhibition of trypsin-like activity of 20S proteasome catalytic core from rabbit erythrocytes using Boc-LRR-AMC as substrate preincubated for 15 mins prior to substrate addition measured after 45 mins. Also noted: species or system Oryctolagus cuniculus.
A short description of experiment [9]: (§2) Inhibition of trypsin-like activity of 20S proteasome catalytic core from human erythrocytes using Boc-LRR-AMC as substrate preincubated for 15 mins prior to substrate addition measured after 45 mins.
The species entered for experiment [10] is Homo sapiens. The experiment is described as follows: Inhibition of calpain-1 from human erythrocytes using […] as substrate.
Experiment [11] is filed under the species Oryctolagus cuniculus. The experiment is described as follows: Inhibition of trypsin-like activity of 20S proteasome catalytic core from rabbit erythrocytes using Boc-LRR-AMC as substrate at 100 uM preincubated for 15 mins prior to substrate addition measured after 45 mins.
For experiment [12], the species on record is Oryctolagus cuniculus. The experiment is described as follows: Inhibition of chymotrypsin-like activity of 20S proteasome catalytic core from rabbit erythrocytes using Suc-LLVY-AMC as substrate at 100 uM preincubated for 15 mins prior to substrate addition measured after 45 mins.
The species named for experiment [13] is Oryctolagus cuniculus. The experiment is described as follows: Inhibition of caspase-like activity of 20S proteasome catalytic core from rabbit erythrocytes using Z-LLE-NA as substrate at 100 uM preincubated for 15 mins prior to substrate addition measured after 45 mins.
The species entered for experiment [14] is Homo sapiens. Described as §1.
Experiment [15] is filed under the species Homo sapiens. The experiment can be described thus: Inhibition of trypsin-like activity of 20S proteasome catalytic core from human erythrocytes using Boc-LRR-AMC as substrate at 100 uM preincubated for 15 mins prior to substrate addition measured after 45 mins.
For experiment [16], the species on record is Homo sapiens. The experiment is described as §2.

Usually inhibition stands for the relative decrease from the control value, in per cent. The IC50 is the concentration needed to halve the response being measured. Lower therefore signals inhibition by little substance.

Active and inactive are the calls of the source. No cut-off for these calls is given here.

Take `CC1(C)OC(=O)c2c1ccn(NC(N)=S)c2=O`: the inhibition result in the experiment filed under Oryctolagus cuniculus [1] was “tde”. Besides, the IC50 in [2] stood at 8 µM; in experiment [3], 9.7 µM; in experiment [4], 8.4 µM; in [7], 10.7 µM; in [8], 10.1 µM; in experiment [9], 10.2 µM. The inhibition result (in [5]; in the experiment filed under Homo sapiens [10]) was “inactive” each time. Besides, the inhibition result in the experiment listed under Oryctolagus cuniculus [6] is “Active”.

For the molecule `CC1(C)OC(=O)c2c1ccn(CC(O)CN1CCCCC1)c2=O` (stereo unspecified), the inhibition result (in the experiment listed under Oryctolagus cuniculus [11]; in experiment [5]; in the experiment listed under Oryctolagus cuniculus [12]; in the experiment filed under Homo sapiens [10]) was “inactive” each time. For the same molecule, half-maximal inhibition in [7] (IC50) required 6.1 µM.

Consider `C=CCOCC(O)Cn1ccc2c(c1=O)C(=O)OC2(C)C` (stereo unspecified), for which the inhibition entry (in the experiment filed under Oryctolagus cuniculus [11]; in experiment [5]; in the experiment listed under Oryctolagus cuniculus [12]; in the experiment filed under Homo sapiens [10]) was “inactive” in each case. The molecule also displayed an IC50 in [7] of 5.9 µM.

With `CC1(C)OC(=O)c2c1ccn(CCc1ccc(O)cc1)c2=O`, the inhibition result (in the experiment filed under Oryctolagus cuniculus [11]; in experiment [5]; in the experiment listed under Homo sapiens [10]) was “inactive” in each case. Further, the inhibition in the experiment filed under Oryctolagus cuniculus [12] was 38.2%; in the experiment listed under Oryctolagus cuniculus [13], 21.7%.

With `CC1(C)OC(=O)c2c1ccn(CCc1ccccc1)c2=O`, the values for the IC50 in [3] and in experiment [7] were 45.7 µM and 48.7 µM, respectively. Moreover, the inhibition in the experiment filed under Oryctolagus cuniculus [11] amounted to 22.6%; in the experiment listed under Homo sapiens [15], 25.3%. The inhibition result (in the experiment filed under Homo sapiens [14]; in [5]; in the experiment listed under Oryctolagus cuniculus [12]; in the experiment listed under Homo sapiens [10]) was “inactive” in each case.

Consider `CC1(C)OC(=O)c2c1ccn(CC(O)CO)c2=O` (stereo unspecified), for which the inhibition entry (in the experiment listed under Oryctolagus cuniculus [11]; in experiment [5]; in the experiment filed under Oryctolagus cuniculus [12]; in the experiment listed under Homo sapiens [10]) was “inactive” throughout. Also, the IC50 in experiment [7] is 4.9 µM.

Consider `CC1(C)OC(=O)c2c1ccn(CC(O)CN1CCN(Cc3ccccc3)CC1)c2=O` (stereo unspecified), for which the inhibition entry (in the experiment filed under Oryctolagus cuniculus [11]; in [5]; in the experiment filed under Oryctolagus cuniculus [12]; in the experiment listed under Homo sapiens [10]) was “inactive” throughout. This molecule gave a concentration for half-maximal inhibition (IC50) in experiment [7] of 69.8 µM.

Take `CC1(C)OC(=O)c2c1ccn(Cc1ccncc1)c2=O`: the IC50 in [3] amounted to 7.9 µM; in [7], 7 µM. The inhibition entry (in the experiment filed under Oryctolagus cuniculus [11]; in the experiment filed under Homo sapiens [14]; in experiment [5]; in the experiment listed under Oryctolagus cuniculus [12]; in the experiment filed under Homo sapiens [16]; in the experiment listed under Homo sapiens [10]) was “inactive” each time.

Take `CC1(C)OC(=O)c2c1ccn(CCCN1CCOCC1)c2=O`: the inhibition entry (in the experiment listed under Oryctolagus cuniculus [11]; in experiment [5]; in the experiment listed under Oryctolagus cuniculus [12]; in the experiment filed under Homo sapiens [10]) was “inactive” throughout. The molecule further displayed an IC50 in [7] of 71.9 µM.

In the case of `Cn1ccc2c(c1=O)C(=O)OC2(C)C` [CERPEGIN], the inhibition result (in the experiment listed under Oryctolagus cuniculus [11]; in experiment [5]; in the experiment listed under Oryctolagus cuniculus [12]; in the experiment filed under Homo sapiens [10]) was “inactive” throughout. In experiment [7], the IC50 is 10.4 µM.

With `CC1(C)OC(=O)c2c1ccn(CC(O)c1ccccc1)c2=O` (stereo unspecified), the inhibition in the experiment filed under Oryctolagus cuniculus [11] amounted to 51.5%. The inhibition result (in [5]; in the experiment listed under Oryctolagus cuniculus [12]; in the experiment listed under Homo sapiens [10]) was “inactive” each time. The molecule also came in with an IC50 in experiment [7] of 5.2 µM.

On to `CC1(C)OC(=O)c2c1ccn(CCCN1CCCC1)c2=O`, for which the inhibition entry (in the experiment filed under Oryctolagus cuniculus [11]; in experiment [5]; in the experiment filed under Oryctolagus cuniculus [12]; in the experiment filed under Homo sapiens [10]) was “inactive” each time. This molecule also returned an IC50 in [7] of 11.4 µM.

`CC1(C)OC(=O)c2c1ccn(Cc1cccc(C(F)(F)F)c1)c2=O`: the inhibition result (in the experiment filed under Oryctolagus cuniculus [11]; in experiment [5]; in the experiment filed under Oryctolagus cuniculus [12]; in the experiment listed under Homo sapiens [10]) was “inactive” each time. For the same molecule, the half-maximal inhibitory concentration (IC50) in experiment [7] came out at 8.4 µM.

For the molecule `CC1(C)OC(=O)c2c1ccn(CCNc1ccc([N+](=O)[O-])cn1)c2=O`, the inhibition entry (in the experiment listed under Oryctolagus cuniculus [11]; in experiment [5]; in the experiment listed under Oryctolagus cuniculus [12]; in the experiment filed under Homo sapiens [10]) was “inactive” in each case. For the same molecule, in the experiment filed under Oryctolagus cuniculus [13], the inhibition worked out at 23.4%.

In the case of `CC1(C)OC(=O)c2c1ccn(Cc1ccc(Cl)cc1)c2=O`, the inhibition in the experiment filed under Oryctolagus cuniculus [11] is 20%; in the experiment filed under Oryctolagus cuniculus [12], 21%. Further, the inhibition entry (in experiment [5]; in the experiment filed under Homo sapiens [10]) was “inactive” throughout. The molecule also displayed an IC50 in [7] of 7.1 µM.

As for `CC1(C)OC(=O)c2c1ccn(CCc1c[nH]c3ccccc13)c2=O`, the inhibition result (in the experiment listed under Oryctolagus cuniculus [11]; in experiment [5]; in the experiment filed under Oryctolagus cuniculus [12]; in the experiment filed under Homo sapiens [10]) was “inactive” throughout. Also, the inhibition in the experiment filed under Oryctolagus cuniculus [13] came out at 23.7%.

In the case of `CC1(C)OC(=O)c2c1ccn(CCc1ccc(S(N)(=O)=O)cc1)c2=O`, the inhibition result (in the experiment listed under Oryctolagus cuniculus [11]; in experiment [5]; in the experiment filed under Oryctolagus cuniculus [12]; in the experiment filed under Homo sapiens [10]) was “inactive” each time. Besides, in [7], the IC50 was determined as 5.5 µM.

Molecule `CC1(C)OC(=O)c2c1ccn(CCc1ccccc1Cl)c2=O` registered an inhibition in the experiment listed under Oryctolagus cuniculus [11] of 40%. In addition, the inhibition result (in experiment [5]; in the experiment filed under Oryctolagus cuniculus [12]; in the experiment filed under Homo sapiens [10]) was “inactive” throughout. The molecule further had an IC50 in [7] of 4.9 µM.

Consider `CC1(C)OC(=O)c2c1ccn(Cc1ccc(Cl)cc1Cl)c2=O`, for which the inhibition entry (in the experiment filed under Oryctolagus cuniculus [11]; in experiment [5]; in the experiment listed under Oryctolagus cuniculus [12]; in the experiment listed under Homo sapiens [10]) was “inactive” in each case. Besides, the IC50 in [7] worked out at 29.3 µM.

In the case of `CCOC(=O)Cn1ccc2c(c1=O)C(=O)OC2(C)C`, the inhibition entry (in the experiment listed under Oryctolagus cuniculus [11]; in experiment [5]; in the experiment filed under Oryctolagus cuniculus [12]; in the experiment listed under Homo sapiens [10]) was “inactive” in each case. Moreover, the half-maximal inhibitory concentration (IC50) in experiment [7] stood at 13.3 µM.

Consider `CC1(C)OC(=O)c2c1ccn(CC(O)COc1ccccc1)c2=O` (stereo unspecified), for which the inhibition in the experiment filed under Oryctolagus cuniculus [11] is 33.3%. Moreover, the inhibition result (in experiment [5]; in the experiment listed under Oryctolagus cuniculus [12]; in the experiment filed under Homo sapiens [10]) was “inactive” each time. Also, the IC50 in experiment [7] amounted to 39.7 µM.

The molecule `CC1(C)OC(=O)c2c1ccn(CCc1ccc(Cl)cc1)c2=O` had an inhibition in the experiment filed under Oryctolagus cuniculus [11] of 50%. Moreover, the inhibition entry (in experiment [5]; in the experiment listed under Oryctolagus cuniculus [12]; in the experiment listed under Homo sapiens [10]) was “inactive” throughout. The molecule also displayed an IC50 in [7] of 20.1 µM.

With `CC1(C)OC(=O)c2c1ccn(CCO)c2=O`, the inhibition result (in the experiment listed under Oryctolagus cuniculus [11]; in experiment [5]; in the experiment listed under Oryctolagus cuniculus [12]; in the experiment filed under Homo sapiens [10]) was “inactive” each time. It took 12.1 µM to reach half-maximal inhibition in experiment [7] (IC50).

Molecule `CC1(C)OC(=O)c2c1ccn(CC(O)CN1CCOCC1)c2=O` (stereo unspecified) yielded an inhibition in the experiment listed under Oryctolagus cuniculus [11] of 42.5%. For the same molecule, the inhibition entry (in experiment [5]; in the experiment filed under Oryctolagus cuniculus [12]; in the experiment listed under Homo sapiens [10]; in the experiment filed under Oryctolagus cuniculus [13]) was “inactive” each time.

Consider `COc1ccc(CCn2ccc3c(c2=O)C(=O)OC3(C)C)cc1`, for which the inhibition entry (in the experiment listed under Oryctolagus cuniculus [11]; in experiment [5]; in the experiment filed under Oryctolagus cuniculus [12]; in the experiment filed under Homo sapiens [10]; in the experiment filed under Oryctolagus cuniculus [13]) was “inactive” throughout.

On to `CC1(C)OC(=O)c2c1ccn(CCCn1ccnc1)c2=O`, for which the inhibition result (in the experiment filed under Oryctolagus cuniculus [11]; in [5]; in the experiment listed under Oryctolagus cuniculus [12]; in the experiment listed under Homo sapiens [10]) was “inactive” each time. The molecule also displayed an IC50 in [7] of 76.8 µM.

Turning to `CCN(CC)CC(O)Cn1ccc2c(c1=O)C(=O)OC2(C)C` (stereo unspecified), the inhibition result (in experiment [5]; in the experiment listed under Oryctolagus cuniculus [12]; in the experiment filed under Homo sapiens [10]) was “inactive” each time. In addition, the IC50 came out at 6.1 µM in experiment [7] and 90 µM in experiment [8].

With `CN(C)CCn1ccc2c(c1=O)C(=O)OC2(C)C`, the inhibition entry (in the experiment filed under Oryctolagus cuniculus [11]; in [5]; in the experiment listed under Oryctolagus cuniculus [12]; in the experiment filed under Homo sapiens [10]) was “inactive” in each case. This molecule also displayed an inhibition in the experiment filed under Oryctolagus cuniculus [13] of 50%.

Consider `CC1(C)OC(=O)c2c1ccn(CCc1ccc(F)cc1)c2=O`, for which the inhibition result (in the experiment filed under Oryctolagus cuniculus [11]; in experiment [5]; in the experiment filed under Oryctolagus cuniculus [12]; in the experiment listed under Homo sapiens [10]) was “inactive” in each case. This molecule also showed an IC50 in experiment [7] of 39.8 µM.
